“Also recorded” adds a separate entry of the source.
Tested on: M2 mutant viruses
Format: cell-based, influenza A virus

With `NC12CC3CC(CC(C3)C1)C2` [amantadine] the effect on replication was “either not affected or inhibited only slightly; also recorded: Substantial inhibition”.

Reference: patent US8057806B2 (priority 2000, dated 2011)
